Laboratory results reported in patent publication EP1844039B1, “5-SUBSTITUTED QUINOLINE AND ISOQUINOLINE DERIVATIVES, A METHOD FOR THE PRODUCTION THEREOF AND THEIR USE AS ANTIPHLOGISTICS” (priority 2004, dated 2006).
pEC50, pIC50: −log10 of the molar value.

How the values were obtained:
[1] = Skin atrophy induction, 18 days daily local treatment, skin fold thickness measurement; assay type: in vivo; details: rats
Description: Eine weitere, besonders nach lokaler Therapie, auftretende unerwünschte Wirkung ist die Induktion einer Hautatrophie, die zu einem Verlust der Haut an Dicke, Elastizität und letztlich der mechanischen Belastbarkeit der Haut führt. Das Potential einer Substanz, Hautatrophie zu induzieren, kann in Ratten bestimmt werden. Die Tiere werden dafür 18 Tage täglich lokal in äquieffektiven Dosierungen mit den Testsubstanzen behandelt. Mittels einer Hautfaltendickenmessung läßt sich die Abnahme der Hautdicke über die Behandlungszeit verfolgen.
Im Vergleich zu Clobetasolpropionat, das bei einer Konzentration von 0.01 % (maximale anti-inflammatorische Wirkung wird erreicht) zu einer 65%igen Reduktion der Hautdicke führt, ist bei Beispiel 1 bei einer Konzentration von 0.1 % (maximale anti-inflammatorische Wirkung wird erreicht) nur eine 41 %ige Reduktion festzustellen.
Dieser Vorteil ist auch gegenüber den Substanzen aus der Anmeldung WO03/082827 zu sehen; beispielsweise induziert das Eutomer von Beispiel 36 bereits bei einer Konzentration von 0.06% (maximale anti-inflammatorische Wirkung) eine 60%ige Reduktion der Hautdicke.

IL-8 = experiment: Inhibition of LPS-induced IL-8 secretion in THP-1 cells (ELISA of supernatant); assay type: cell-based, menschlichen; details: for Efficacy: Efficacy von Dexamethason = 100%; for pIC50: Homo sapiens
Description: Die erfindungsgemäßen Verbindungen der allgemeinen Formel (IIa) und (IIb) hemmen die durch Lipopolysaccharid (LPS) induzierte Sekretion des Zytokins IL-8 in der menschlichen Monozytenzelline THP-1.

[2] = test system: Tyrosinaminotranferase (TAT); experiment: Induction of tyrosine aminotransferase (TAT) in hepatoma cells, 24 h treatment, photometric; assay type: cell-based, Ratten; details: rat hepatoma cells; for Efficacy: Efficacy von Dexamethason = 100%
Description: Immunologische Grundlagen, Pharmakologie und Therapierichtlinien, Wissenschafliche Verlagsgesellschaft mbH, Stuttgart, 1998]. Ursache hierfür ist die Stimulation der Gluconeogenese in der Leber durch Induktion der hierfür verantwortlichen Enzyme und durch freie Aminosäuren, die aus dem Abbau von Proteinen (katabole Wirkung der Glucocorticoide) entstehen. Ein Schlüsselenzym des katabolen Stoffwechsels in der Leber ist die Tyrosinaminotranferase (TAT). Die Aktivität dieses Enzyms kann photometrisch aus Zellkulturen von behandelten Ratten-Hepatomzellen bestimmt werden. Die Zellen werden für 24 Stunden mit den Testsubstanzen behandelt und anschließend die TAT-Aktivität gemessen.

Compound | Reduktion der Hautdicke ([1]; concentration 0.01 % (maximal anti-inflammatory effect reached)) [%] | Efficacy (IL-8) [%] | pIC50 (IL-8) | pEC50 [2] | Efficacy [2] [%] | Reduktion der Hautdicke ([1]; concentration 0.1 % (maximal anti-inflammatory effect reached)) [%]
CCC(=O)O[C@]1(C(=O)CCl)[C@@H](C)C[C@H]2[C@@H]3CCC4=CC(=O)C=C[C@]4(C)[C@@]3(F)[C@@H](O)C[C@@]21C [Clobetasolpropionat, reference compound] | 65 |  |  |  |  | 
Cc1ccc2c(NCC(O)(CC(C)(C)c3cc(F)cc4c3OCC4)C(F)(F)F)cccc2n1 (racemic) [Beispiel 1, 5-[4-(5-Fluor-2,3-dihydrobenzofuran-7-yl)-2-hydroxy-4-methyl-2-trifluormethyl-pentylamino]-2-methylchinolin] |  | 74 | 8.23 | 8.43 | 93 | 41
Cc1ccc2c(NCC(O)(CC(C)(C)c3cc(F)cc4c3OCC4)C(F)(F)F)ccc(F)c2n1 (racemic) [Beispiel 10, 8-Fluor-5-[4-(5-Fluor-2,3-dihydrobenzofuran-7-yl)-2-hydroxy-4-methyl-2-trifluormethyl-pentylamino]-2-methylchinolin] |  | 86 | 7.68 | 8.00 | 92 | 
C[C@]12C=CC(=O)C=C1CC[C@@H]1[C@@H]2[C@@H](O)C[C@@]2(C)[C@H]1CC[C@]2(O)C(=O)CO [Prednisolon, reference compound] |  | 96 | 7.89 | 8.59 | 103 | 
Cn1ccc2c(NCC(O)(CC(C)(C)c3cc(F)cc4c3OCC4)C(F)(F)F)cccc2c1=O (racemic) [Beispiel 11, 5-[4-(5-Fluor-2,3-dihydrobenzofuran-7-yl)-2-hydroxy-4-methyl-2-trifluormethylpentylamino]-2-methylisochinol-1(2H)-on] |  | 61 | 8.07 | 8.40 | 86 | 
